Results taken from patent US7259278B2, “Anti-S-phase tubulin ligands” (Cytoskeleton Inc., priority 2000, dated 2007).

Columns and labels:
[1] = target: mitochondrial permeability transition pore complex; conditions: read-out: Kd of interaction with a component (probably tubulin) on the mitochondrial outer membrane; cited from earlier work
CEM cells [2] = assay: Immunofluorescence staining of microtubule structure and apoptotic DNA analysis; type: cell-based; conditions: ID90 concentration
Method: FIG. 5. Interferences with the formation of microtubule structure in IAABE treated CEM cells. […] Insert is DNA extracted from the same samples run on 1% agarose gels and stained with ethidium bromide. Note absence of microtubule structure and appearance of apoptotic nuclei in IAABE treated cells. Note strong signal of apoptotic DNA ladder in IAABE treated cells compared to vinblastine and paclitaxel samples.
Immunofluorescence staining of microtubule structure. CEM cells incubated in the presence or absence of IAABE were collected and centrifuged in a Cytospin centrifuge at 700 xg for 5 min. The slides were air dried and fixed with methanol at −20° C. for 20 min. The slides were incubated in PBS containing 1% BSA at 37° C. for 30 min. After washing with PBS for 3 min, cells on the slides were covered with 30 ul of antihuman beta-tubulin monoclonal antibody (4 ug/ml; Accurate Antibody, Westbury, N.Y.) and placed in a humid chamber at 24° C. for 60 min. The slides were washed with PBS three times for 3 min each, followed by staining with 10 ul of FTTC-labeled goat anti-mouse antibody (Coulter, Hialeah, Fla.) in a humid chamber at 24° C. for 60 min. After washing in PBS, the stained cells were visualized under a fluorescence microscope (model MC63, Zeiss, Jena, Germany).
Apoptotic DNA analysis. […]

[3] = system: lymphoma cells (Daudi/wt and Daudi/MDR); assay: Cytotoxicity: cancericidal index, lymphoma cells versus normal cells; type: cell-based, human
Method: FIG. 9. Cytotoxicity of IAABE against different tumor cells.
Cytotoxicity assays. Cells in suspension were seeded into 96-well plates at 10^5 cells/well, and the compounds added, total well volume was 250 μl. Cells were cultured for 48 h and the viability measured by trypan blue exclusion. ID50 and ID90 values were determined by the concentration of compound required to induce cell death in 50 or 90% of cells respectively.

Prostate carcinoma = Prostate carcinoma model; type: in vivo, mice; conditions: 90 days after tumor implant
Method: FIG. 11. Prostate carcinoma inhibition by IAABE. • *—N,N-dimethylacetamide, propylene glycol and Tween 80 (1:2:1 v/v/v) • 1—2.5×10^6 tumor cells were injected s.c. on day 0, treatment started at day 1. • 2—TI%=Tumor growth inhibition 1 week after last treatment. • 3—TF/T=Tumor free mice at day 90 after tumor implant.

CEM cells [4] = conditions: 4 n DNA; cited from earlier work

| Compound | Kd [1] [µM] | microtubule structure by immunofluorescence (CEM cells [2]) | cancericidal index, ratio (ID50 normal cells/ID50 cancer cells) [3] | tumor free mice (Prostate carcinoma) | cell cycle phase of arrest (CEM cells [4]) |
| --- | --- | --- | --- | --- | --- |
| CC(=O)O[C@H]1C(=O)[C@@]2(C)[C@H]([C@H](OC(=O)c3ccccc3)[C@]3(O)C[C@H](OC(=O)[C@H](O)[C@@H](NC(=O)c4ccccc4)c4ccccc4)C(C)=C1C3(C)C)[C@]1(OC(C)=O)CO[C@@H]1C[C@@H]2O [paclitaxel] | 5 to 20 | dense mitotic spindle staining | 24 | no tumor free mice | G2/M phase |
| CC[C@]1(O)C[C@@H]2CN(CCc3c([nH]c4ccccc34)[C@@](C(=O)OC)(c3cc4c(cc3OC)N(C)[C@H]3[C@@](O)(C(=O)OC)[C@H](OC(C)=O)[C@]5(CC)C=CCN6CC[C@]43[C@@H]65)C2)C1 [vinblastine] | – | punctuated aggregates of tubulin | 42 | no tumor free mice | G2/M phase |
